Like-named read-outs stand apart in the source and are kept apart here.
Experiments:
[1] = cited from earlier work
[2] = tested on: reagin-mediated rat Passive Cutaneous Anaphylaxis (PCA); assay: Reagin-mediated rat Passive Cutaneous Anaphylaxis (PCA) screening test; format: in vivo, Sprague-Dawley rats
Description: The reagin-mediated rat Passive Cutaneous Anaphylaxis (PCA) screening test used to evaluate the present compounds is generally regarded as one of the best animal models for use in predicting the antiallergy activity of test compounds in man. Briefly, the method consists of passive sensitization of skin sites on the test animals with reaginic antibodies followed after 24 hours by administration of the test drug and antigen challenge. The allergic response is measured by use of Evans' blue dye and is evaluated by the spot diameter at the injection side. Details of the test are provided below.
A substituted ovalbumin antigen is used both as immunogen and challenging antigen. The antigen is prepared as follows: 500 mg. ovalbumin (EA) and 500 mg. K2 CO3 are dissolved in 25 ml. distilled H2 O and stirred at room temperature for 5 minutes. Five hundred (500) mg. dinitrobenzene sulfonic acid, Na^+ salt, (previously recrystallized from hot absolute ethanol) is then added slowly with continued stirring. The reaction mixture is then immediately placed in the dark and allowed to proceed for 2 hours with constant stirring. After 2 hours the mixture is placed in suitable dialysis tubing and dialyzed against 5 changes (4 liters each) of distilled H2 O at 5° C. After dialysis the product is lyophilized and stored at room temperature in a brown or amber container. The antigen obtained will appear as a light yellow, amorphous solid which is very soluble in water or saline. It is designated as DNP denatured ovalbumin (DNP-d EA).
Adult, male Sprague-Dawley rats are used as a source or reagin-rich antisera for the PCA model. Immunization is by a combination of DNP-d EA on Al(OH)3 gel and B. pertussis vaccine. Preparation of the DNP-d EA - gel immunogen is as follows: Dissolve the DNP-d EA in TBS so as to give a concentration of 10 mg./ml. Slowly add 1 ml. of this solution to 10 ml. Al(OH)3 gel (10 mg. solids/ml.) with constant stirring at room temperature. Stir the mixture an additional 30 minutes to insure a uniform adsorption of antigen on gel.
The resulting preparation is then used in combination with phase I B. pertussis vaccine to immunize male S/D rats as follows: For each rat administer 0.1 ml. DNP-d EA - gel suspension intramuscularly in each hind leg (200 μg DNP-d EA and 2 mg. gel total dose). Follow these injections by the intraperitoneal administration of 1.0 ml. B. pertussis vaccine (10-20 × 10^9 organisms). The use of light ether anesthesia during this procedure is recommended to insure proper intramuscular and intraperitoneal injections. Nine days following immunization (but no longer than 10) the animals are exsanguinated by cardiac puncture or abdominal aorta cannulation under ether or pentobarbital anesthesia. The collected whole blood is allowed to clot, the serum separated by centrifugation and the individual serum samples stored frozen until assayed for IgE content.
Individual serum samples should be screened for reaginic antibody concentration before being pooled with other sera, as not all rats respond to immunization procedures with reagin production. A 1:50 saline dilution of serum from each immunized rat is used for this purpose. Intradermal injections of 0.05 ml. of the diluted sera are made in the shaven backs of two small female recipient rats, 100-120 gms. Several serum samples can be tested simultaneously in recipient animals. After a 24 to 48 hour latent period antigen challenge is accomplished by intravenous administration to each rat of 1 mg. DNP-d EA in 0.5 ml. 0.5% Evans' blue dye in saline. Sera which show positive PCA reactions at the 1:50 dilution, as measured 20 to 30 minutes post-challenge are pooled, dispensed in small aliquots and stored at -70° C. or lower until used. Negative sera may be discarded.
The IgE titer of the antisera pool should then be determined. […]

[3] = tested on: release of mediators, e.g. histamine and SRS-A; conditions: administered to asthmatic patients prior to inhalation of specific antigens; cited from earlier work
[4] = iv, 1-5 minutes prior to antigen challenge (DSCG: at the time of antigen challenge), read-out: Rat PCA Test ID50, i.v. (dose of compound that inhibits 50% of the response)
[5] = po, 10 minutes prior to antigen challenge, Table II and its footnote, read-out: Rat PCA Test ID50, p.o. (dose of compound that inhibits 50% of the response)
[6] = po, 10 minutes prior to antigen challenge, Table 1, read-out: Rat PCA Test ID50, p.o. (dose of compound that inhibits 50% of the response)

| Compound | oral absorption [1] | ED50 [2, 4] [mg/kg] | ED50 [2, 5] [mg/kg] | ED50 ([2]; po, DSCG dosed 30 minutes prior to challenge, Table 1, read-out: Rat PCA Test ID50, p.o. (DSCG)) [mg/kg] | inhibition of release of mediators, e.g. histamine and SRS-A [3] | ED50 [2, 6] [mg/kg] |
| --- | --- | --- | --- | --- | --- | --- |
| O=C(O)c1cc(=O)c2c(OCC(O)COc3cccc4oc(C(=O)O)cc(=O)c34)cccc2o1 [DSCG, disodium cromoglycate, reference compound] | not orally absorbed | 0.6 | > 30 | > 30 | inhibits the release of mediators | – |
| CC(C)C(=O)Oc1ccc2c(c1)-c1ncc(C(=O)O)c(=O)n1CC2 [Example 21, 10-Isobutyryloxy-6,7-dihydro-4-oxo-4H-pyrimido[2,1-a]isoquinoline-3-carboxylic Acid] | – | – | – | – | – | ~0.5 |
| COc1cc2c(cc1OC)-c1ncc(-c3nnn[nH]3)c(=O)n1CC2 [Example 24, 6,7-Dihydro-9,10-dimethoxy-3-(1H-tetrazol-5-yl)-4H-pyrimido[2,1-a]isoquinol-4-one] | – | – | – | – | – | ~0.03 |
| CCc1cn2c(=O)c(-c3nnn[nH]3)cnc2c2ccccc12 [Example 25, 7-Ethyl-3-(1H-tetrazol-5-yl)-4H-pyrimido[2,1-a]isoquinol-4-one] | – | 0.009 | 0.04 | – | – | – |
